Experiments:
[1] = test system: avian chorioallantoic membrane (CAM); format: in vivo, Leghorn fertilized eggs; details: fumagillin 5 μg/CAM; 48 h
Description: CGEN-G6 [SEQ ID NO: 6], CGEN-F9 [SEQ ID NO: 7], CGEN-F12 [SEQ ID NO: 8], CGEN-C6 [SEQ ID NO: 9], CGEN-A11 [SEQ ID NO: 10], and CGEN-G2 [SEQ ID NO: 11], were analyzed for their ability to affect angiogenesis using the in ovo avian chorioallantoic membrane (CAM) model of angiogenesis, which is widely used as a model to examine compounds affecting angiogenesis (Richardson and Singh 2003, Curr Drug Targets Cardiovasc Haematol Disord., 3(2):155-85). Two positive controls were used: fumagillin as a general anti-angiogenic compound, and Tie2 neutralizing antibody as anti-angiogenic inhibitor of the Ang/Tie2 pathway. Leghorn fertilized eggs were incubated for 4 days at 37° C., when a window was opened on the egg's shell, exposing the CAM. Two different doses of peptides (0.5 and 5 nmol/CAM), Tie-2 neutralizing antibody (R&D Systems, Cat#AF313, 10 μg/ml; 0.4 μg/CAM) or fumagillin (Tocris Bioscience, Cat #1768; 5 μg/CAM) were applied in a 40 μl volume inside an area of 1 cm^2 (restricted by a plastic ring) of the CAM on day 9 of embryo development. The appropriate vehicle controls were also tested. Forty-eight hours after treatment and subsequent incubation at 37° C., CAMs were fixed in situ, excised from the eggs, placed on slides and left to air-dry. Pictures were taken through a stereoscope equipped with a digital camera and the total length of the vessels was measured using image analysis software (NIH Image). For each group a total of 17-24 eggs from three different experiments were used. Data are presented as means±SEM and expressed as % of vehicle control. Statistical analysis (ANOVA followed by Dunnett's post-hoc test) was performed using Graph Pad.
FIG. 6 depict results obtained on vessel length with peptides CGEN-G6 [SEQ ID NO: 6], CGEN-F9 [SEQ ID NO: 7], CGEN-F12 [SEQ ID NO: 8], CGEN-C6 [SEQ ID NO: 9], CGEN-A11 [SEQ ID NO: 10], and CGEN-G2 [SEQ ID NO: 11], compared to Tie2 neutralizing antibody (Ab) and the anti-angiogenic compound fumagillin. Neutralizing Tie2 Ab blocked vessel length by 36%, while the angiogenesis inhibitor fumagillin blocked vessel length by 32%.

[2] = test system: co-culture of early passage human endothelial cells with early passage human interstitial cells; test: AngioKit in vitro angiogenesis, total tubule length; format: cell-based; details: 14 days, data not shown
[3] = test system: oxygen-induced retinopathy (OIR); test: Rodent model of oxygen-induced retinopathy (OIR); format: in vivo, Sprague Dawley rats
Source text: In order to assess the in viva efficacy of CGEN-A 11 [SEQ ID NO: 10] in a disease model of angiogenesis, a rodent model of oxygen-induced retinopathy (OIR) was used. Sprague Dawley rats were raised from birth through day PI4 in a variable oxygen atmosphere consisting of 24-hour alternating cycles of 50% and 10% oxygen. Rats were predisposed to pathological retinal angiogenesis as a result of oxygen treatment. Upon removal from the oxygen exposure chamber on day P14, rats received intravitreal injections of CGEN-A11 [SEQ ID NO: 10] in one of two doses: 15 μg/ml (low) or 75 μg/ml (high), 100 μg/ml recombinant rat Tie-2/Fc (R&D Systems, 3874-T2) or 100 μg/ml anti-VEGFR2 (Sigma, V1014) as positive controls, a combination of CGEN-A11 [SEQ ID NO: 10] at 30 μg/ml and anti-VEGFR2 (100 μg/ml), or vehicle (PBS) at a volume of 5 μl. An additional similar intravitreal administration took place 3 days later, on day P17. All pups were sacrificed on day P20. Both normal, intra-retinal vascular growth and abnormal, pre-retinal neovascular growth were assessed at six days post-exposure (P20) in ADPase-stained retinal flat-mounts, using widely published methods (e.g. Penn J S et al., 1991, Invest Ophthalmol Vis Sci. 32(4):1147; MicLeod D S et al., 1987, Microvasc Res. 33:257-269). All assessments were performed by a single, highly trained observer, who was blinded to treatment group. Areas of normal and abnormal vascular growth were measured via computer-assisted image analysis using high-resolution digital images of the stained retinal flat-mounts. The data were subjected to analysis of variance to determine statistical significance and a Dunnett's post hoc test to identify how the various treatment groups compared.
Data are depicted using percent total retinal area vascularized. Sample sizes (10, 11 or 12) are indicated on each bar. […] These differences yielded statistical significance, both at p<0.0001. Statistical significance was calculated using area (mm^2) measurements.
Data are depicted as area vascularized (mm^2). Sample sizes (10, 11 or 12) are indicated on each bar.

Molecule: CO[C@@H]1[C@H](OC(=O)/C=C/C=C/C=C/C=C/C(=O)O)CC[C@]2(CO2)[C@H]1[C@@]1(C)O[C@@H]1CC=C(C)C [fumagillin, reference compound]
- inhibition of vessel length [1]: 32%

Molecule: Cc1ccc(C(=O)Nc2ccc(S(=O)(=O)O)c3cc(S(=O)(=O)O)cc(S(=O)(=O)O)c23)cc1NC(=O)c1cccc(NC(=O)Nc2cccc(C(=O)Nc3cc(C(=O)Nc4ccc(S(=O)(=O)O)c5cc(S(=O)(=O)O)cc(S(=O)(=O)O)c45)ccc3C)c2)c1 [suramin]
- reduction of tubule length ([2]; suramin 20 μM): 50%

Molecule: VEGF
- induction of tubule length ([2]; VEGF 2 ng/mL, pro-angiogenic control): 130%

B1: Tie-2/Fc: recombinant rat Tie-2/Fc (R&D Systems, 3874-T2), positive control (protein)
chain: AMDLILINSLPLVSDAETSLTCIASGWRPHEPITIGRDFEALMNQHQDPLEVTQDVTREWAKKVVWKREKASKINGAYFCEGRVRGEAIRIRTMKMRQQASFLPATLTMTVDKGDNVNISFKKVLIKEEDAVIYKNGSFIHSVPRHEVPDILEVHLPHAQPQDAGVYSARYIGGNLFTSAFTRLIVRRCEAQKWGPECNHLCTACMNNGVCHEDTGECICPPGFMGRTCEKACELHTFGRTCKERCSGQEGCKSYVFCLPDPYGCSCATGWKGLQCNEACHPGFYGPDCKLRCSCNNGEMCDRFQGCLCSPGWQGLQCEREGIQRMTPKIVDLPDHIEVNSGKFNPICKASGWPLPTNEEMTLVKPDGTVLHPKDFNHTDHFSVAIFTIHRILPPDSGVWVCSVNTVAGMVEKPFNISVKVLPKPLNAPNVIDTGHNFAVINISSEPYFGDGPIKSKKLLYKPVNHYEAWQHIQVTNEIVTLNYLEPRTEYELCVQLVRRGEGGEGHPGPVRRFTTASIGLPPPRGLNLLPKSQTTLNLTWQPIFPSSEDDFYVEVERRSVQKSDQQNIKVPGNLTSVLLNNLHPREQYVVRARVNTKAQGEWSEDLTAWTLSDILPPQPENIKISNITHSSAVISWTILDGYSISSITIRYKVQGKNEDQHVDVKIKNATITQYQLKGLEPETAYQVDIFAENNIGSSNPAFSHELVTLPESQAPADLGGGK
modifications: left off: a dimerising Fc or GST
notes: recombinant rat Tie-2/Fc (R&D Systems, 3874-T2), positive control
- inhibition of pre-retinal neovascular growth (pathological angiogenesis) ([3]; Tie-2/Fc intravitreal 100 μg/ml, P20, p=0.0436): 61.9%
- intra-retinal normal vascular growth compared to PBS control ([3]; intravitreal 100 μg/ml, 5 μl, P14 and P17, assessed P20, p<0.0001): statistically significant increase

Reference: patent publication US9255132B2, “Angiopoietin derived peptides” (Compugen Ltd., priority 2008, dated 2016)
